Source: PMC12140300, “Development of Carbon‐11 Labeled Pyrimidine Derivatives as Novel Positron Emission Tomography (PET) Agents Enabling Brain Sigma‐1 Receptor Imaging” (Advanced Science, 2025)

Test system: σ1R
Test: NHP PET/MR imaging with kinetic modelling, baseline and self-blocking
Format: in vivo
Details: for VT, Logan graphical method [T* = 40 min] / VT, Two tissue compartment model [2TCM] / VT, One tissue compartment model [1TCM]: male NHP brain
Source text: Next, we conducted PET/MR imaging studies using [^11C]CNY‐01 in non‐human primates (NHP) to evaluate its safety and translational potential in large animals further. A 90‐minute dynamic PET scan with [^11C]CNY‐01 focusing on the head of a male rhesus monkey. We performed a full kinetic analysis with one‐ and two‐tissue compartment models (1TCM and 2TCM), as well as logan graphical analysis (LGA), using metabolite‐corrected arterial input function (AIF), similar to previous studies,^[ [44], [45] ^] to determine which model best suit kinetics of [^11C]CNY‐01. In most brain regions, 2TCM provided a better fit than 1TCM, as indicated by the Akaike information criterion (AIC) and model selection criterion (MSC) (Table 1). […] To test whether non‐parametric graphical approaches can be used for [^11C]CNY‐01, we performed LGA with an assumption of steady‐state time (T*) of 40 mins (Table 1). […] For voxel‐wise estimation of VT across the whole brain, we then used LGA (Figure 4A).
We also performed a self‐blocking scan for [^11C]CNY‐01, administering 0.5 mg kg^−1 of unlabeled CNY‐01 10 min before the radiotracer. The metabolism of the radiotracer in the blocking scan was similar to that of the baseline (Figure S6, Supporting Information). The radioactivity concentration was lower in arterial blood samples in the blocking scan compared to the baseline, while brain uptake was higher in the blocking scan (Figure S6, Supporting Information). […] The variation of the radiotracer plasma protein binding (fp) between baseline and blocking scan may explain our observation in a way similar to that of the previous study.^[ [46] ^] Nonetheless, due to this study's lack of fp data, the exact explanation for our observation remains to be determined further.
The PET/MR imaging protocol in non‐human primates (NHP) followed our previous work.^[ [55], [56] ^] A male rhesus macaque (8.55 kg) was anesthetized with an intramuscular injection of xylazine (0.5–2.0 mg kg^−1) and ketamine (10 mg kg^−1), followed by endotracheal intubation. V‐ and A‐lines were inserted, and anesthesia was maintained using isoflurane. [^11C] CNY‐01 was administered after antecubital catheterization, with an arterial line prepared for radiometabolite analysis. In the self‐blocking scan, the same animal (6.80 kg) was scanned with a 10‐min pre‐treatment of 0.5 mg kg^−1 unlabeled CNY‐01. PET/MR imaging data were acquired using a Siemens TIM‐Trio scanner (3T) equipped with a Siemens BrainPET insert module and an in‐house‐built 8‐channel head coil. The dynamic scan began, followed by administration of [^11C] CNY‐01 (5.1 mCi). The list mode data were reconstructed using the 3D ordinary Poisson expectation‐maximization algorithm (16 subsets and 6 iterations) with detector efficiency, decay, dead time, random coincidences, scatter, and attenuation corrections with gradually increasing time frams. All images were reconstructed into 153 slices with 256 × 256 pixels and 1.25‐mm isotropic voxel size. High‐resolution structural MRI scans were acquired by using a multi‐echo magnetization‐prepared rapid gradient echo (ME‐MPRAGE) sequence with parameters as follows: TR = 2400 ms; TE1/TE2/TE3/TE4 = 1.57/3.29/5.01/6.73 ms; inversion time = 1200 ms; flip angle = 9°; spatial resolution = 1 mm isotropic.
For macaque brain PET/MR imaging analysis, we applied the INIA19 Template^[ [57] ^] and NeuroMaps Atlas in accordance with our prior work.^[ [58] ^] In brief, reconstructed PET images were registered to the INIA19 Primate Brain Atlas^[ [57] ^] with the following processing steps^[ [59] ^]: The high‐resolution T1‐weighted MR image, co‐registered with the PET image, was first affine‐registered to the INIA19 atlas. By using the same transformation, dynamic PET data was registered to the atlas. A spatial smoothing with a 6‐mm FWHM Gaussian kernel was applied to PET images. Twenty ROIs determined in the INIA19 atlas were used to derive regional TACs. […]

[1] = ACC, 10-min pretreatment of unlabeled CNY-01 (0.5 mg kg^−1)
[2] = Amygdala, 10-min pretreatment of unlabeled CNY-01 (0.5 mg kg^−1)
[3] = CBL, 10-min pretreatment of unlabeled CNY-01 (0.5 mg kg^−1)
[4] = Caudate, 10-min pretreatment of unlabeled CNY-01 (0.5 mg kg^−1)
[5] = Globus-pallidus, 10-min pretreatment of unlabeled CNY-01 (0.5 mg kg^−1)
[6] = Hippocampus, 10-min pretreatment of unlabeled CNY-01 (0.5 mg kg^−1)
[7] = Hypothalamus, 10-min pretreatment of unlabeled CNY-01 (0.5 mg kg^−1)
[8] = Ifc, 10-min pretreatment of unlabeled CNY-01 (0.5 mg kg^−1)
[9] = Insula, 10-min pretreatment of unlabeled CNY-01 (0.5 mg kg^−1)
[10] = Midbrain, 10-min pretreatment of unlabeled CNY-01 (0.5 mg kg^−1)
[11] = Motor, 10-min pretreatment of unlabeled CNY-01 (0.5 mg kg^−1)

Cc1nc(-c2ccc(O[11CH3])cc2)nc(OCCCN2CCCCC2)c1Cl [[^11C]CNY-01]
VT in blocking scan compared to baseline (0.5 mg kg^−1 unlabeled CNY-01 10 min before the radiotracer, NHP): higher VT across the brain
VT, Logan graphical method [T* = 40 min] [1]: 29.37 ml/cm^3
VT, Two tissue compartment model [2TCM] [1]: 25.84 ml/cm^3
VT, Logan graphical method [T* = 40 min] (ACC, baseline): 13.32 mL cm^−3
VT, One tissue compartment model [1TCM] (ACC, baseline): 9.76 mL cm^−3
VT, Two tissue compartment model [2TCM] (ACC, baseline): 15.87 mL cm^−3
VT, Logan graphical method [T* = 40 min] [2]: 34.47 ml/cm^3
VT, Two tissue compartment model [2TCM] [2]: 29.18 ml/cm^3
VT, Logan graphical method [T* = 40 min] (Amygdala, baseline): 14.75 mL cm^−3
VT, One tissue compartment model [1TCM] (Amygdala, baseline): 10.83 mL cm^−3
VT, Two tissue compartment model [2TCM] (Amygdala, baseline): 13.78 mL cm^−3
VT, Logan graphical method [T* = 40 min] [3]: 21.96 ml/cm^3
VT, Two tissue compartment model [2TCM] [3]: 18.25 ml/cm^3
VT, Logan graphical method [T* = 40 min] (CBL, baseline): 11.65 mL cm^−3
VT, One tissue compartment model [1TCM] (CBL, baseline): 8.96 mL cm^−3
VT, Two tissue compartment model [2TCM] (CBL, baseline): 11.68 mL cm^−3
VT, Logan graphical method [T* = 40 min] [4]: 28.10 ml/cm^3
VT, Two tissue compartment model [2TCM] [4]: 24.46 ml/cm^3
VT, Logan graphical method [T* = 40 min] (Caudate, baseline): 12.71 mL cm^−3
VT, One tissue compartment model [1TCM] (Caudate, baseline): 9.58 mL cm^−3
VT, Two tissue compartment model [2TCM] (Caudate, baseline): 14.24 mL cm^−3
VT, Logan graphical method [T* = 40 min] [5]: 33.31 ml/cm^3
VT, Two tissue compartment model [2TCM] [5]: 26.67 ml/cm^3
VT, Logan graphical method [T* = 40 min] (Globus-pallidus, baseline): 15.11 mL cm^−3
VT, One tissue compartment model [1TCM] (Globus-pallidus, baseline): 11.32 mL cm^−3
VT, Two tissue compartment model [2TCM] (Globus-pallidus, baseline): 14.90 mL cm^−3
VT, Logan graphical method [T* = 40 min] [6]: 24.15 ml/cm^3
VT, Two tissue compartment model [2TCM] [6]: 18.46 ml/cm^3
VT, Logan graphical method [T* = 40 min] (Hippocampus, baseline): 10.31 mL cm^−3
VT, One tissue compartment model [1TCM] (Hippocampus, baseline): 8.04 mL cm^−3
VT, Two tissue compartment model [2TCM] (Hippocampus, baseline): 10.36 mL cm^−3
VT, Logan graphical method [T* = 40 min] [7]: 24.54 ml/cm^3
VT, Two tissue compartment model [2TCM] [7]: 18.97 ml/cm^3
VT, Logan graphical method [T* = 40 min] (Hypothalamus, baseline): 11.42 mL cm^−3
VT, One tissue compartment model [1TCM] (Hypothalamus, baseline): 8.36 mL cm^−3
VT, Two tissue compartment model [2TCM] (Hypothalamus, baseline): 10.60 mL cm^−3
VT, Logan graphical method [T* = 40 min] [8]: 20.73 ml/cm^3
VT, Two tissue compartment model [2TCM] [8]: 18.09 ml/cm^3
VT, Logan graphical method [T* = 40 min] (Ifc, baseline): 9.62 mL cm^−3
VT, One tissue compartment model [1TCM] (Ifc, baseline): 7.36 mL cm^−3
VT, Two tissue compartment model [2TCM] (Ifc, baseline): 10.89 mL cm^−3
VT, Logan graphical method [T* = 40 min] [9]: 31.86 ml/cm^3
VT, Two tissue compartment model [2TCM] [9]: 26.77 ml/cm^3
VT, Logan graphical method [T* = 40 min] (Insula, baseline): 14.70 mL cm^−3
VT, One tissue compartment model [1TCM] (Insula, baseline): 11.17 mL cm^−3
VT, Two tissue compartment model [2TCM] (Insula, baseline): 13.96 mL cm^−3
VT, Logan graphical method [T* = 40 min] [10]: 34.11 ml/cm^3
VT, Two tissue compartment model [2TCM] [10]: 25.70 ml/cm^3
VT, Logan graphical method [T* = 40 min] (Midbrain, baseline): 13.39 mL cm^−3
VT, One tissue compartment model [1TCM] (Midbrain, baseline): 11.03 mL cm^−3
VT, Two tissue compartment model [2TCM] (Midbrain, baseline): 14.71 mL cm^−3
VT, Logan graphical method [T* = 40 min] [11]: 21.53 ml/cm^3
VT, Two tissue compartment model [2TCM] [11]: 16.66 ml/cm^3
VT, Logan graphical method [T* = 40 min] (Motor, baseline): 9.39 mL cm^−3
